In this data set the test system is GENE-TOX genotoxicity assays, various organisms and cells. The data set can be described thus: GENE-TOX mutagenicity studies. Conditions: Evaluation Type: Evaluation A (Pre-1980).
Setting [1] is: Species/Cell Type: Salmonella typhimurium (one or more of the five standard strains: TA98, TA100, TA1535, TA1537, and TA1538), Assay Type: Histidine reverse gene mutation, Ames assay, Assay Code: SAL+.
The mark [2] stands for this setting: Species/Cell Type: Syrian hamster embryo (SA7/SHE) cells, Assay Type: Cell transformation, viral enhanced, Assay Code: CT7+.
[3] abbreviates: Species/Cell Type: Escherichia coli polA (W3119 vs P3478), Assay Type: Rec-assay, DNA effects (bacterial DNA repair), Assay Code: RE1+.

In PubChem BioAssay AID1259408 (Genetic Toxicology Data Bank (GENE-TOX), 2018) one finds mutagenic call and call data, which are given here for 3 compounds.

Calls of active or inactive are those of the source. The rule behind the calls is not given here.

For `[Cl][Zn][Cl]`, the mutagenic call by setting is: (Species/Cell Type: Bacillus subtilis (H17 vs M45), Assay Type: Rec-assay, spot test, DNA effects (bacterial DNA repair), Assay Code: REW-) “inactive; negative”; (Species/Cell Type: Human lymphocytes or leukocytes, Assay Type: Chromosome aberrations in vitro, Assay Code: CY7-) “inactive; negative”; (Species/Cell Type: Mouse, Sex: Male, Assay Type: Sperm morphology, Assay Code: SPI-) “inactive; negative”; under setting [1], “active; positive”; (Species/Cell Type: Salmonella typhimurium, Assay Type: Forward and reverse gene mutation, host-mediated assay, Assay Code: HMA+) “active; positive”; under setting [2], “active; positive”.
For the compound `CCOS(C)(=O)=O`, the mutagenic call is “active; positive” (Species/Cell Type: Arabidopsis species, Assay Type: Gene mutation, Assay Code: ARM+D, Dose Response: With dose response); “active; positive” (Species/Cell Type: Aspergillus nidulans, Assay Type: Forward gene mutation, Assay Code: ASF+); “active; positive” (Species/Cell Type: Aspergillus nidulans, Assay Type: Reverse gene mutation, Assay Code: ASR+); “active; positive” (Species/Cell Type: Chinese hamster lung (V79) cells, Assay Type: Forward gene mutation at the HPRT or ouabain locus, Assay Code: V79+); “active; positive” (Species/Cell Type: Chinese hamster ovary (CHO) cells, Assay Type: Forward gene mutation at the HPRT locus, Assay Code: CHO+D, Dose Response: With dose response); “active; positive” (Species/Cell Type: Drosophila melanogaster, Assay Type: Sex-linked recessive lethal gene mutation, Assay Code: SRL+). The mutagenic call was “active; positive” (Species/Cell Type: Drosophila melanogaster, Sex: Male, Assay Type: Heritable translocation test, chromosome aberrations, Assay Code: DHT+); “active; positive” (Species/Cell Type: Escherichia coli WP2, Assay Type: Tryptophan reverse gene mutation, Assay Code: WP2+); “active; positive” (Species/Cell Type: Escherichia coli WP2 UVRA, Assay Type: Tryptophan reverse gene mutation, Assay Code: WPU+); “active; positive” under setting [3]; “active; positive” (Species/Cell Type: F1 mouse, Sex: Male, Assay Type: Sperm morphology, Assay Code: SPF+); “active; positive” (Species/Cell Type: Glycine max (soybean), Assay Type: Gene mutation, Assay Code: GLM+). Moreover, the mutagenic call is, setting by setting: (Species/Cell Type: Hordeum vulgare (barley), Assay Type: Chromosome aberrations, Assay Code: HOC+D, Dose Response: With dose response) “active; positive”; (Species/Cell Type: Hordeum vulgare (barley), Assay Type: Gene mutation, Assay Code: HOM+D, Dose Response: With dose response) “active; positive”; (Species/Cell Type: Human diploid fibroblasts, Assay Type: Unscheduled DNA synthesis (UDS) in vitro, DNA effects, Assay Code: UDH+D, Dose Response: With dose response) “active; positive”; (Species/Cell Type: Human lymphocytes, Assay Type: Micronucleus test in vitro, chromosome aberrations, Assay Code: MN7+) “active; positive”; (Species/Cell Type: Human lymphocytes, Assay Type: Sister-chromatid exchange (SCE) in vitro, Assay Code: SCL+) “active; positive”; (Species/Cell Type: Human, Assay Type: Sister-chromatid exchange (SCE) in vitro, Assay Code: SC1+D, Dose Response: With dose response) “active; positive”. The mutagenic call is “no conclusion” (Species/Cell Type: Mammalian germ cells, Sex: Male, Assay Type: Chromosome aberrations in vivo, Assay Code: CY9T); “active; positive” (Species/Cell Type: Mammalian polychromatic erythrocytes, Assay Type: Micronucleus test, chromosome aberrations, Assay Code: MNT+); “active; positive” (Species/Cell Type: Mouse germ cells, Sex: Male, Assay Type: Unscheduled DNA synthesis (UDS) in vivo, DNA effects, Assay Code: UDT+); “active; positive” (Species/Cell Type: Mouse lymphoma (L5178Y) cells, Assay Type: Forward gene mutation at the thymidine kinase (TK) locus, chromosome aberrations, Assay Code: L51+); “active; positive” (Species/Cell Type: Mouse, Sex: Female, Assay Type: Spot test, gene mutation, Assay Code: MST+); “active; positive” (Species/Cell Type: Mouse, Sex: Male, Assay Type: Heritable translocation test, chromosome aberrations, Assay Code: HTT+D, Dose Response: With dose response). Moreover, the mutagenic call reads like this: (Species/Cell Type: Mouse, Sex: Male, Assay Type: Specific locus test, gene mutation, Assay Code: SLT+) “active; positive”; (Species/Cell Type: Mouse, Sex: Male, Assay Type: Sperm morphology, Assay Code: SPI+) “active; positive”; (Species/Cell Type: Neurospora crassa, Assay Type: Aneuploidy, chromosome aberrations, Assay Code: NEN-) “inactive; negative”; (Species/Cell Type: Neurospora crassa, Assay Type: Forward gene mutation, Assay Code: NEF+) “active; positive”; (Species/Cell Type: Neurospora crassa, Assay Type: Reverse gene mutation, Assay Code: NER+) “active; positive”; (Species/Cell Type: Nonhuman bone marrow, Assay Type: Chromosome aberrations, in vivo, Assay Code: CY#+) “active; positive”. In addition, the mutagenic call is “active; positive” (Species/Cell Type: Nonhuman, Assay Type: Sister-chromatid exchange (SCE) in vitro, Assay Code: SC2+D, Dose Response: With dose response); “active; positive” (Species/Cell Type: Nonhuman, Assay Type: Sister-chromatid exchange (SCE) in vivo, Assay Code: SC3+D, Dose Response: With dose response); “inactive; negative” (Species/Cell Type: Plant, Assay Type: Micronucleus test, chromosome aberrations, Assay Code: MNP-); “active; positive” (Species/Cell Type: Rodents, Sex: Male, Assay Type: Dominant lethal test, Assay Code: DLT+D, Dose Response: With dose response); “active; positive” (Species/Cell Type: Saccharomyces cerevisiae, Assay Type: Aneuploidy, chromosome aberrations, Assay Code: YEN+); “active; positive” (Species/Cell Type: Saccharomyces cerevisiae, Assay Type: Forward gene mutation, Assay Code: YEF+). The mutagenic call is “active; positive” (Species/Cell Type: Saccharomyces cerevisiae, Assay Type: Mitotic recombination or gene conversion, Assay Code: YEC+); “active; positive” (Species/Cell Type: Saccharomyces cerevisiae, Assay Type: Mitotic recombination or gene conversion, Assay Code: YEH+); “active; positive” (Species/Cell Type: Saccharomyces cerevisiae, Assay Type: Reverse gene mutation, Assay Code: YER+); “active; positive” under setting [1]; “active; positive” (Species/Cell Type: Salmonella typhimurium, Escherichia coli, Serratia marcesens, Neurospora crassa, Saccharomyces cerevisiae, Chinese hamst, Assay Type: Forward and reverse gene mutation, lethal mutation, mitotic recombination and gene conversion, DNA effects, host-mediate, Assay Code: HM8+); “active; positive” (Species/Cell Type: Schizosaccharomyces pombe, Assay Type: Forward gene mutation, Assay Code: YEY+). The mutagenic call by setting is: (Species/Cell Type: Schizosaccharomyces pombe, Assay Type: Reverse gene mutation, Assay Code: YEZ+) “active; positive”; under setting [2], “active; positive”; (Species/Cell Type: Syrian hamster embryo (SHE) cells, Assay Type: Cell transformation, clonal assay, Assay Code: CTC+) “active; positive”; (Species/Cell Type: Syrian hamster embryo (SHE) cells, Assay Type: Cell transformation, focus assay, Assay Code: CTF+) “active; positive”; (Species/Cell Type: Tradescantia species, Assay Type: Chromosome aberrations, Assay Code: TRC+D, Dose Response: With dose response) “active; positive”; (Species/Cell Type: Tradescantia species, Assay Type: Gene mutation, Assay Code: TRM+D, Dose Response: With dose response) “active; positive”. In addition, the mutagenic call reads like this: (Species/Cell Type: Vicia faba, Assay Type: Chromosome aberrations, Assay Code: VIC+D, Dose Response: With dose response) “active; positive”; (Species/Cell Type: Zea mays (corn), Assay Type: Gene mutation, Assay Code: ZEM+D, Dose Response: With dose response) “active; positive”. Further, the call (Species/Cell Type: Nonhuman, Assay Type: In vivo carcinogenicity studies, Assay Code: CCG+) is “active; positive”.
With `CCN(CC)CCCC(C)Nc1ccnc2cc(Cl)ccc12` (centres undefined), the mutagenic call under setting [3] was “active; positive” and the mutagenic call (Species/Cell Type: Mammalian cell culture, nonhuman, Assay Type: Micronucleus test in vitro, chromosome aberrations, Assay Code: MN&+) was “active; positive”.
